Measurements: paper PMC9090415, “Discovery of small molecule inhibitors of Plasmodium falciparum apicoplast DNA polymerase” (Journal of Enzyme Inhibition and Medicinal Chemistry, 2022)
pIC50: −log10 of the molar value.

Biological target: P. falciparum apicoplast DNA polymerase (Pf-apPOL) (Plasmodium falciparum, UniProt Q8ILY1)
Test: Fluorescence-based high-throughput DNA polymerase assay (molecular beacon), primary screen and dose-response
Assay type: biochemical
Settings: for pIC50: supplemental file 2, sheet IC50 nontoxic compounds, Pf-apPOL; for DNA Pol: 90 min, 10 µM
In short: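 Single-point screening used 10 µM compound with 20 nM polymerase, 20 nM hairpin substrate and 6 µM dNTPs for 90 min at 25 °C. Confirmatory titrations (2.5–80 µM) followed fluorescence at three times, and IC50 was derived from a fit including a cooperativity term n.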

Sequence of P. falciparum apicoplast DNA polymerase (Pf-apPOL) (Q8ILY1 entry or part of it): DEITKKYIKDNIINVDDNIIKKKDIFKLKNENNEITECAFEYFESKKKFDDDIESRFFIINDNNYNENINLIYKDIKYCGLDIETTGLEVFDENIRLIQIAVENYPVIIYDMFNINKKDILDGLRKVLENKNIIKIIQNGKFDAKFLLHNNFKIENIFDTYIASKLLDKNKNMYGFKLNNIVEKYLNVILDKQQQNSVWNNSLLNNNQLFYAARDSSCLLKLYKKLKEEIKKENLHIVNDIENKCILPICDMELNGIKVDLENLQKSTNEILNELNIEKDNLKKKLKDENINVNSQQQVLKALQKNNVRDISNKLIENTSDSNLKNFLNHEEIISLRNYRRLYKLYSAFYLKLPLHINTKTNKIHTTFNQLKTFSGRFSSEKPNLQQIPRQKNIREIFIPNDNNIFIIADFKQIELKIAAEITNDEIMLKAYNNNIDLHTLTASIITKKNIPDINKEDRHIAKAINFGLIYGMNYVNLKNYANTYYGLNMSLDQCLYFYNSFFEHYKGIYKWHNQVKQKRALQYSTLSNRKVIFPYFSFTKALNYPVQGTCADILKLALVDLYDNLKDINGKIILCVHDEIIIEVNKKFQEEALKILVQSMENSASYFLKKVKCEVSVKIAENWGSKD

Structure (SMILES): COCC(=O)Nc1c(-c2cccc(F)c2)nc2cc(C)ccn12 [Molecule 44]
- pIC50: 4.95

Structure (SMILES): O=C(Nc1nnc(-c2cccs2)o1)c1ccc([N+](=O)[O-])o1 [Molecule 74]
- pIC50: 4.51

Structure (SMILES): COc1ccc(NC(=O)Cn2ccc3c(=O)[nH]ccc32)cc1 [Molecule 13, COc1ccc(cc1)NC(=O)Cn1ccc2c1cc[nH]c2=O]
- % inhibition Apo pol 10' (DRC-1, concentration 2.5): 9.9864%
- % inhibition Apo pol 10' (DRC-1, concentration 5): 32.1099%
- % inhibition Apo pol 10' (DRC-1, concentration 10): 65.6259%
- % inhibition Apo pol 10' (DRC-1, concentration 20): 81.849%
- % inhibition Apo pol 10' (DRC-1, concentration 40): 89.1437%
- % inhibition Apo pol 10' (DRC-1, concentration 80): 82.2361%
- % inhibition Apol 90' (DRC-1, concentration 2.5): 1.393%
- % inhibition Apol 90' (DRC-1, concentration 5): 18.8368%
- % inhibition Apol 90' (DRC-1, concentration 10): 50.5955%
- % inhibition Apol 90' (DRC-1, concentration 20): 73.6159%
- % inhibition Apol 90' (DRC-1, concentration 40): 87.1809%
- % inhibition Apol 90' (DRC-1, concentration 80): 85.204%
- % inhibition apPOL 180' (DRC-1, concentration 2.5): -3.687%
- % inhibition apPOL 180' (DRC-1, concentration 5): 7.549%
- % inhibition apPOL 180' (DRC-1, concentration 10): 35.4263%
- % inhibition apPOL 180' (DRC-1, concentration 20): 60.6819%
- % inhibition apPOL 180' (DRC-1, concentration 40): 82.9961%
- % inhibition apPOL 180' (DRC-1, concentration 80): 83.4711%
- % inhibition Apo pol 5' (DRC-2, concentration 2.5): 7%
- % inhibition Apo pol 5' (DRC-2, concentration 5): 18%
- % inhibition Apo pol 5' (DRC-2, concentration 10): 37%
- % inhibition Apo pol 5' (DRC-2, concentration 20): 47%
- % inhibition Apo pol 5' (DRC-2, concentration 40): 45%
- % inhibition Apo pol 5' (DRC-2, concentration 80): 40%
- % inhibition Apol 40' (DRC-2, concentration 2.5): 5.45%
- % inhibition Apol 40' (DRC-2, concentration 5): 19%
- % inhibition Apol 40' (DRC-2, concentration 10): 41%
- % inhibition Apol 40' (DRC-2, concentration 20): 65%
- % inhibition Apol 40' (DRC-2, concentration 40): 67%
- % inhibition Apol 40' (DRC-2, concentration 80): 65%
- % inhibition ApPOL 90' (DRC-2, concentration 2.5): 4%
- % inhibition ApPOL 90' (DRC-2, concentration 5): 16%
- % inhibition ApPOL 90' (DRC-2, concentration 10): 38%
- % inhibition ApPOL 90' (DRC-2, concentration 20): 66%
- % inhibition ApPOL 90' (DRC-2, concentration 40): 72%
- % inhibition ApPOL 90' (DRC-2, concentration 80): 70%
- % inhibition apPOL 180' (DRC-2, concentration 2.5): -2%
- % inhibition apPOL 180' (DRC-2, concentration 5): 7%
- % inhibition apPOL 180' (DRC-2, concentration 10): 27%
- % inhibition apPOL 180' (DRC-2, concentration 20): 63%
- % inhibition apPOL 180' (DRC-2, concentration 40): 74%
- % inhibition apPOL 180' (DRC-2, concentration 80): 76%
- % inhibition Apo pol 5' (conc. 2.5, DRC-2): 7%
- % inhibition apPOL 180' (conc. 5, DRC-2): 7%
- % inhibition Apol 40' (conc. 20, DRC-2): 65%
- % inhibition Apol 40' (conc. 80, DRC-2): 65%
- DNA Pol (primary screen value by plate and well): 53
- DNA Pol (primary screen value of the 186 hits, unit not given): 53

Structure (SMILES): CCCCC(=O)N1CCc2c(nc3cc(-c4ccccc4Cl)[nH]n3c2=O)C1 [Molecule 37]
- pIC50: 4.98
